Where a SMILES comes first, the peptide text is derived from it.
Each molecule was assayed against T1, RPMI 8866 cells (Homo sapiens, UniProt P13612+P26010) (assay: α4β7-MAdCAM Cell Adhesion Assay). Conditions: thioether peptide dimers, Table 7; read-out: Cell-Adhesion A4B7.
T1 sequence (P13612 34-1032): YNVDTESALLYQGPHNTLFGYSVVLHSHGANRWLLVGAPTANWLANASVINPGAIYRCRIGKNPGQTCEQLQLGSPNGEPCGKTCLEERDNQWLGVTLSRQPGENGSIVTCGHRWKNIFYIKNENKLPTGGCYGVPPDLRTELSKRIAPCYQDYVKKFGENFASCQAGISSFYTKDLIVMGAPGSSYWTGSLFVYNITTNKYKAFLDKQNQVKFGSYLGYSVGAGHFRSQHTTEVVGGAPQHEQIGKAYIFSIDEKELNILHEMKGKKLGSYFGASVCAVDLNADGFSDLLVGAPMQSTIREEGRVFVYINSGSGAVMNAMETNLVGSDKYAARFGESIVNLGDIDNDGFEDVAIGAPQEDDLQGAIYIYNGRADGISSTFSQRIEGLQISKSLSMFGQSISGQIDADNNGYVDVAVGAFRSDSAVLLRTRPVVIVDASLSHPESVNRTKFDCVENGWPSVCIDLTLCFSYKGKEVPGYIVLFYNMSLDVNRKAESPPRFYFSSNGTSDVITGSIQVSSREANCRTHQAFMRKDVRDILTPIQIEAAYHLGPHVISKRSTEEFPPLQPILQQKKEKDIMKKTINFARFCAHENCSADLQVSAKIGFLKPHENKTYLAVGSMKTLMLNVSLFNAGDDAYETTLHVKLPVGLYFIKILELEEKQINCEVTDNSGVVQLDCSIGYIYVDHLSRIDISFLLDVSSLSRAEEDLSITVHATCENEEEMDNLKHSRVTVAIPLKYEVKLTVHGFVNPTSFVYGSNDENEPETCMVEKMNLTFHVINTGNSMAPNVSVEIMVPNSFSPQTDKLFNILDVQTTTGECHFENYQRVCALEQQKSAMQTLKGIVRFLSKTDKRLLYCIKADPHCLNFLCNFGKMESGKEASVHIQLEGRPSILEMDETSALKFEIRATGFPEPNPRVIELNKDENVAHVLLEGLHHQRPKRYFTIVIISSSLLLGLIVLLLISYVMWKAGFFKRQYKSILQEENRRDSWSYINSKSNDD
T1 sequence (P26010 20-798): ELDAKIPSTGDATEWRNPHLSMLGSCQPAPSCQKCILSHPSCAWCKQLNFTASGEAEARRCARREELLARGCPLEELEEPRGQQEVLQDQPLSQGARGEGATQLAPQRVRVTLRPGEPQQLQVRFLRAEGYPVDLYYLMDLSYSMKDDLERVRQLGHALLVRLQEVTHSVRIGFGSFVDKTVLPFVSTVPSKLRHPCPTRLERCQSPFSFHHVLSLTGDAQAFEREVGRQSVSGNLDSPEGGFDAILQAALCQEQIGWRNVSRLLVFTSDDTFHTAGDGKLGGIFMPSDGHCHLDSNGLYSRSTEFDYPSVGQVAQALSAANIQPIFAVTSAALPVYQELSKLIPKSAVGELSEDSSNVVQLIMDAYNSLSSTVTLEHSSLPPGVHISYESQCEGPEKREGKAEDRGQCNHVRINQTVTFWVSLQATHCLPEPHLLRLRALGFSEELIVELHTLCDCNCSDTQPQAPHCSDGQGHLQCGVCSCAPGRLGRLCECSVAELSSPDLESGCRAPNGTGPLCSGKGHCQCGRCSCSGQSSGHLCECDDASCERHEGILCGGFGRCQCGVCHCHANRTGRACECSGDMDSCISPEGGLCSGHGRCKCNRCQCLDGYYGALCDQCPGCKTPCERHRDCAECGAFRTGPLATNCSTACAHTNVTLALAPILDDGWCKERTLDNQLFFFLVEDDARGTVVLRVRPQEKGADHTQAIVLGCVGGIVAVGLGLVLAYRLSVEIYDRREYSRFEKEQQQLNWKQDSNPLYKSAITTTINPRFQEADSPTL
Format: cell-based
Method: α4β7-MAdCAM Cell Adhesion Assay
RPMI 8866 cells (Sigma #95041316) were cultured in RPMI 1640 HEPES medium (Invitrogen #22400-089) supplemented with 10% serum (Fetal Bovine Serum, Invitrogen #16140-071), 1 mM sodium pyruvate (Invitrogen #11360-070), 2 mM L-glutamine (Invitrogen #25030-081) and Penicillin-Streptomycin (Invitrogen #15140-122) at 100 units of penicillin and 100 μg of streptomycin per ml. The cells were washed two times in DMEM medium (ATCC #30-2002) supplemented with 0.1% BSA, 10 mM HEPES pH 7 and 1 mM MnCl2. The cells were re-suspended in supplemented DMEM medium at a density of 4×10^6 cells/ml.
A Nunc MaxiSorp plate was coated with rh MAdCAM-1/Fc Chimera (R&D #6065-MC) at 200 ng per well in 50 ul per well in 1×PBS and incubated at 4° C. overnight. The solution was then removed by shaking, blocked with 250 ul per well PBS containing 1% BSA, and incubated at 37° C. for 1 hr. The solution was removed by shaking. Peptides were diluted by serial dilution in a final volume of 50 ul per well (2× concentration). To each well, 50 ul of cells (200,000 cells) were added and the plate was incubated at 37° C., 5% CO2 for 30-45 min to allow cell adhesion. The wells were washed manually three times (100 ul per wash) with supplemented DMEM. After the final wash, 100 μl/well of supplemented DMEM and 10 ul/well of MTT reagent (ATTC cat #30-1010K) were added. The plate was incubated at 37° C., 5% CO2 for 2-3 hrs until a purple precipitate is visible. 100 ul of Detergent Reagent (ATTC cat #30-1010K) was added to each well. The plate was covered from the light, wrapped in Parafilm to prevent evaporation, and left overnight at room temperature in the dark. The plate was shaken for 5 min and the absorbance at 570 nm is measured. To calculate the dose response, the absorbance value of control wells not containing cells was subtracted from each test well.

SMILES	IC50 [µM]
CC(C)C[C@@H]1NC(=O)[C@H]([C@@H](C)O)NC(=O)[C@H](CCC(=O)O)NC(=O)[C@H](CO)NC(=O)[C@H](CCCNC(=N)N)N(C)C(=O)c2ccccc2CSC(C)(C)[C@@H](C(=O)N[C@@H](Cc2ccccc2)C(=O)N[C@H](CCC(=O)O)C(=O)N[C@H](CCCCN)C(N)=O)NC1=O [compound 189] (HELM PEPTIDE1{[meR].S.E.T.L.[Pen].F.[dE].[dK].[am]}|CHEM1{[O=C(c1ccccc1C[*:2])[*:1]]}$PEPTIDE1,CHEM1,1:R1-1:R1|PEPTIDE1,CHEM1,6:R3-1:R2$$$V2.0)	> 1
CC(C)C[C@@H]1NC(=O)[C@H]([C@@H](C)O)NC(=O)[C@H](CC(=O)O)NC(=O)[C@H](CO)NC(=O)[C@H](CCCNC(=N)N)N(C)C(=O)c2ccccc2CSC(C)(C)[C@@H](C(=O)N[C@@H](Cc2c[nH]c3ccccc23)C(=O)N[C@H](CCC(=O)O)C(=O)N[C@@H](CC(C)C)C(=O)N[C@H](CCCCN)C(N)=O)NC1=O [compound 190] (HELM PEPTIDE1{[meR].S.D.T.L.[Pen].W.[dE].L.[dK].[am]}|CHEM1{[O=C(c1ccccc1C[*:2])[*:1]]}$PEPTIDE1,CHEM1,1:R1-1:R1|PEPTIDE1,CHEM1,6:R3-1:R2$$$V2.0)	< 0.025
CC(C)C[C@@H]1NC(=O)[C@H]([C@@H](C)O)NC(=O)[C@H](CC(=O)O)NC(=O)[C@H](CO)NC(=O)[C@H](CCCNC(=N)N)N(C)C(=O)c2ccccc2CSC(C)(C)[C@@H](C(=O)N[C@@H](Cc2c[nH]c3ccccc23)C(=O)N[C@H](CCC(=O)O)C(=O)N[C@@H](Cc2ccccc2)C(=O)N[C@H](CCCCN)C(N)=O)NC1=O [compound 192] (HELM PEPTIDE1{[meR].S.D.T.L.[Pen].W.[dE].F.[dK].[am]}|CHEM1{[O=C(c1ccccc1C[*:2])[*:1]]}$PEPTIDE1,CHEM1,1:R1-1:R1|PEPTIDE1,CHEM1,6:R3-1:R2$$$V2.0)	< 0.025
CC(C)C[C@@H]1NC(=O)[C@H]([C@@H](C)O)NC(=O)[C@H](CC(=O)O)NC(=O)[C@H](CO)NC(=O)[C@H](CCCNC(=N)N)N(C)C(=O)c2ccccc2CSC(C)(C)[C@@H](C(=O)N[C@@H](Cc2c[nH]c3ccccc23)C(=O)N[C@H](CCC(=O)O)C(=O)N[C@@H](Cc2c[nH]cn2)C(=O)N[C@H](CCCCN)C(N)=O)NC1=O [compound 193] (HELM PEPTIDE1{[meR].S.D.T.L.[Pen].W.[dE].H.[dK].[am]}|CHEM1{[O=C(c1ccccc1C[*:2])[*:1]]}$PEPTIDE1,CHEM1,1:R1-1:R1|PEPTIDE1,CHEM1,6:R3-1:R2$$$V2.0)	< 0.025
CC(C)C[C@@H]1NC(=O)[C@H]([C@@H](C)O)NC(=O)[C@H](CC(=O)O)NC(=O)[C@H](CO)NC(=O)[C@H](CCCNC(=N)N)N(C)C(=O)c2ccccc2CSC(C)(C)[C@@H](C(=O)N[C@@H](Cc2c[nH]c3ccccc23)C(=O)N[C@H](CCC(=O)O)C(=O)N[C@@H](Cc2ccc(O)cc2)C(=O)N[C@H](CCCCN)C(N)=O)NC1=O [compound 195] (HELM PEPTIDE1{[meR].S.D.T.L.[Pen].W.[dE].Y.[dK].[am]}|CHEM1{[O=C(c1ccccc1C[*:2])[*:1]]}$PEPTIDE1,CHEM1,1:R1-1:R1|PEPTIDE1,CHEM1,6:R3-1:R2$$$V2.0)	< 0.025
CC(C)C[C@@H]1NC(=O)[C@H]([C@@H](C)O)NC(=O)[C@H](CC(=O)O)NC(=O)[C@H](CO)NC(=O)[C@H](CCCNC(=N)N)N(C)C(=O)c2ccccc2CSC(C)(C)[C@@H](C(=O)N[C@@H](Cc2c[nH]c3ccccc23)C(=O)N[C@H](CCC(=O)O)C(=O)N[C@H](CO)C(=O)N[C@H](CCCCN)C(N)=O)NC1=O [compound 197] (HELM PEPTIDE1{[meR].S.D.T.L.[Pen].W.[dE].[dS].[dK].[am]}|CHEM1{[O=C(c1ccccc1C[*:2])[*:1]]}$PEPTIDE1,CHEM1,1:R1-1:R1|PEPTIDE1,CHEM1,6:R3-1:R2$$$V2.0)	< 0.025
CC(C)C[C@@H]1NC(=O)[C@H]([C@@H](C)O)NC(=O)[C@H](CC(=O)O)NC(=O)[C@H](CO)NC(=O)[C@H](CCCNC(=N)N)N(C)C(=O)c2ccccc2CSC(C)(C)[C@@H](C(=O)N[C@@H](Cc2c[nH]c3ccccc23)C(=O)N[C@H](CCC(=O)O)C(=O)N[C@H](Cc2ccccc2)C(=O)N[C@H](CCCCN)C(N)=O)NC1=O [compound 198] (HELM PEPTIDE1{[meR].S.D.T.L.[Pen].W.[dE].[dF].[dK].[am]}|CHEM1{[O=C(c1ccccc1C[*:2])[*:1]]}$PEPTIDE1,CHEM1,1:R1-1:R1|PEPTIDE1,CHEM1,6:R3-1:R2$$$V2.0)	< 0.025
CC(C)C[C@@H]1NC(=O)[C@H]([C@@H](C)O)NC(=O)[C@H](CC(=O)O)NC(=O)[C@H](CO)NC(=O)[C@H](CCCNC(=N)N)N(C)C(=O)c2ccccc2CSC(C)(C)[C@@H](C(=O)N[C@@H](Cc2c[nH]c3ccccc23)C(=O)N[C@H](CCC(=O)O)C(=O)N[C@H](Cc2c[nH]cn2)C(=O)N[C@H](CCCCN)C(N)=O)NC1=O [compound 199] (HELM PEPTIDE1{[meR].S.D.T.L.[Pen].W.[dE].[dH].[dK].[am]}|CHEM1{[O=C(c1ccccc1C[*:2])[*:1]]}$PEPTIDE1,CHEM1,1:R1-1:R1|PEPTIDE1,CHEM1,6:R3-1:R2$$$V2.0)	< 0.025
CC(C)C[C@@H]1NC(=O)[C@H]([C@@H](C)O)NC(=O)[C@H](CC(=O)O)NC(=O)[C@H](CO)NC(=O)[C@H](CCCNC(=N)N)N(C)C(=O)c2ccccc2CSC(C)(C)[C@@H](C(=O)N[C@@H](Cc2c[nH]c3ccccc23)C(=O)N[C@H](CCC(=O)O)C(=O)N[C@H](CCC(=O)O)C(=O)N[C@H](CCCCN)C(N)=O)NC1=O [compound 200] (HELM PEPTIDE1{[meR].S.D.T.L.[Pen].W.[dE].[dE].[dK].[am]}|CHEM1{[O=C(c1ccccc1C[*:2])[*:1]]}$PEPTIDE1,CHEM1,1:R1-1:R1|PEPTIDE1,CHEM1,6:R3-1:R2$$$V2.0)	< 0.025
CC(C)C[C@@H]1NC(=O)[C@H]([C@@H](C)O)NC(=O)[C@H](CC(=O)O)NC(=O)[C@H](CO)NC(=O)[C@H](CCCNC(=N)N)N(C)C(=O)c2ccccc2CSC(C)(C)[C@@H](C(=O)N[C@@H](Cc2c[nH]c3ccccc23)C(=O)N[C@H](CCC(=O)O)C(=O)N[C@H](Cc2ccc(O)cc2)C(=O)N[C@H](CCCCN)C(N)=O)NC1=O [compound 201] (HELM PEPTIDE1{[meR].S.D.T.L.[Pen].W.[dE].[dY].[dK].[am]}|CHEM1{[O=C(c1ccccc1C[*:2])[*:1]]}$PEPTIDE1,CHEM1,1:R1-1:R1|PEPTIDE1,CHEM1,6:R3-1:R2$$$V2.0)	< 0.025

Reference: patent US20260217767A1, “NOVEL A4B7 THIOETHER PEPTIDE DIMER ANTAGONISTS” (Protagonist Therapeutics, Inc., priority 2014, published 2026)
